Experimental data as given in ChEMBL document CHEMBL5523713, “Development of novel N-aryl-2,4-bithiazole-2-amine-based CYP1B1 degraders for reversing drug resistance” (Eur J Med Chem, 2024).
Peptide text beside a SMILES is read from it. * marks the point of attachment. Cbz = O=C(OCc1ccccc1)*

molecular target: T1, Protein cereblon/Cytochrome P450 1B1 (Homo sapiens, UniProt Q16678+Q96SW2); assay: PROTAC activity at CRBN/CYP1B1 in human A549/Taxol cells assessed as degradation by measuring fold change in remaining CYP1B1 level at 1 nM incubated for 24 hrs by Western blotting analysis (reference value: 1); format: ADME, cell-based; conditions: 0.001 µM
T1 sequence (Q16678 whole entry): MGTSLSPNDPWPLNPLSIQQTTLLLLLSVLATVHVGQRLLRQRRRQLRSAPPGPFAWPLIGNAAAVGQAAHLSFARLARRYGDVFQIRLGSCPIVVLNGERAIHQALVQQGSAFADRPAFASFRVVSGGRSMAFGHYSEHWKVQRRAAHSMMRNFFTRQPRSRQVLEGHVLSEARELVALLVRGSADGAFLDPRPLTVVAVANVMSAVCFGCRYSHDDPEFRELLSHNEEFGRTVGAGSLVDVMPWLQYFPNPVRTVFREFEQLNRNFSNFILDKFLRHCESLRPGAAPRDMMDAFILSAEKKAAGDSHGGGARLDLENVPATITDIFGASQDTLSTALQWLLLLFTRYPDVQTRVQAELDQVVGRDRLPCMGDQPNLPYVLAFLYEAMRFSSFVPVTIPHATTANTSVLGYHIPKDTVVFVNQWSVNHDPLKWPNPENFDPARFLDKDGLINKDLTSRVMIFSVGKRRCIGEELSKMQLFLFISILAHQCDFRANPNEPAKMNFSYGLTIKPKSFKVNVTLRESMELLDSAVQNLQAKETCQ
T1 sequence (Q96SW2 whole entry): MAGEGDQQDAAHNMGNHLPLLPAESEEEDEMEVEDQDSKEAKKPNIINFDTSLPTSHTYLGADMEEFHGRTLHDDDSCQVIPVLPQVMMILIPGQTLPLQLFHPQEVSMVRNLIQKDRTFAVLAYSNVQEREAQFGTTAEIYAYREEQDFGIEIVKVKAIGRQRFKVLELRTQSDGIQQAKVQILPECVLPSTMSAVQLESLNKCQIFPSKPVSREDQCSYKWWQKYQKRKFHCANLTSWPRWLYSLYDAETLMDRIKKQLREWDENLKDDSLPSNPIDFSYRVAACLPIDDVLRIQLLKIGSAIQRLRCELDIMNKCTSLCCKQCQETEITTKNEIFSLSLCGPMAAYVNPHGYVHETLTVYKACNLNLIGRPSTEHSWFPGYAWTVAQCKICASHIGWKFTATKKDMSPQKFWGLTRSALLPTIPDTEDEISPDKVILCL

| Compound | fold change (FC) |
| --- | --- |
| O=C1CCC(N2C(=O)c3cccc(NC(=O)CN4CCN(CCCCCCCC(=O)Nc5ccc(-c6csc(-c7csc(Nc8ccc(Cl)cc8)n7)n6)cc5)CC4)c3C2=O)C(=O)N1 (stereo not drawn) | 0.7 |
| O=C1CCC(N2C(=O)c3cccc(NC(=O)CN4CCN(CCCCCCC(=O)Nc5ccc(-c6csc(-c7csc(Nc8ccc(Cl)cc8)n7)n6)cc5)CC4)c3C2=O)C(=O)N1 (stereo not drawn) | 0.8 |
| O=C1CCC(N2C(=O)c3cccc(NC(=O)CN4CCN(CCCCCCCCC(=O)Nc5ccc(-c6csc(-c7csc(Nc8ccc(Cl)cc8)n7)n6)cc5)CC4)c3C2=O)C(=O)N1 (stereo not drawn) | 1 |
| O=C1CCC(N2C(=O)c3cccc(NC(=O)CN4CCN(CCCCCC(=O)Nc5ccc(-c6csc(-c7csc(Nc8ccc(Cl)cc8)n7)n6)cc5)CC4)c3C2=O)C(=O)N1 (stereo not drawn) | 1 |
| O=C1CCC(N2C(=O)c3cccc(NC(=O)CN4CCN(CCCCCCCCCCC(=O)Nc5ccc(-c6csc(-c7csc(Nc8ccc(Cl)cc8)n7)n6)cc5)CC4)c3C2=O)C(=O)N1 (stereo not drawn) | 1.2 |
| O=C1CCC(N2Cc3c(NC(=O)CCCCCCCCCCCC(=O)Nc4ccc(-c5csc(-c6csc(Nc7ccc(Cl)cc7)n6)n5)cc4)cccc3C2=O)C(=O)N1 (stereo not drawn) | 0.7 |
| O=C1CCC(N2Cc3c(NC(=O)CCCCCC(=O)Nc4ccc(-c5csc(-c6csc(Nc7ccc(Cl)cc7)n6)n5)cc4)cccc3C2=O)C(=O)N1 (stereo not drawn) | 1.1 |
| O=C1CCC(N2Cc3c(NC(=O)CCCCCCCCCC(=O)Nc4ccc(-c5csc(-c6csc(Nc7ccc(Cl)cc7)n6)n5)cc4)cccc3C2=O)C(=O)N1 (stereo not drawn) | 1.1 |
| O=C1CCC(N2Cc3c(NC(=O)CCCCCCCCCCCCCC(=O)Nc4ccc(-c5csc(-c6csc(Nc7ccc(Cl)cc7)n6)n5)cc4)cccc3C2=O)C(=O)N1 (stereo not drawn) | 0.9 |
| O=C1CCC(N2C(=O)c3cccc(NC(=O)CN4CCN(CCCCCCCCCC(=O)Nc5ccc(-c6csc(-c7csc(Nc8ccc(Cl)cc8)n7)n6)cc5)CC4)c3C2=O)C(=O)N1 (stereo not drawn) | 0.8 |
| O=C1CCC(N2C(=O)c3cccc(NC(=O)CN4CCN(CCCCCCCCCCCC(=O)Nc5ccc(-c6csc(-c7csc(Nc8ccc(Cl)cc8)n7)n6)cc5)CC4)c3C2=O)C(=O)N1 (stereo not drawn) | 1.5 |
| O=C1CCC(N2Cc3c(NC(=O)CCCCCCCC(=O)Nc4ccc(-c5csc(-c6csc(Nc7ccc(Cl)cc7)n6)n5)cc4)cccc3C2=O)C(=O)N1 (stereo not drawn) | 0.8 |

molecular target: T1, Protein cereblon/Cytochrome P450 1B1; assay: PROTAC activity at CRBN/CYP1B1 in human A549/Taxol cells assessed as degradation by measuring fold change in remaining CYP1B1 level at 1000 nM incubated for 24 hrs by Western blotting analysis (reference value: 1); format: ADME, cell-based; conditions: 1 µM

| Compound | fold change (FC) |
| --- | --- |
| O=C1CCC(N2C(=O)c3cccc(NC(=O)CN4CCN(CCCCCCCC(=O)Nc5ccc(-c6csc(-c7csc(Nc8ccc(Cl)cc8)n7)n6)cc5)CC4)c3C2=O)C(=O)N1 (stereo not drawn) | 1 |
| O=C1CCC(N2C(=O)c3cccc(NC(=O)CN4CCN(CCCCCCC(=O)Nc5ccc(-c6csc(-c7csc(Nc8ccc(Cl)cc8)n7)n6)cc5)CC4)c3C2=O)C(=O)N1 (stereo not drawn) | 0.9 |
| O=C1CCC(N2C(=O)c3cccc(NC(=O)CN4CCN(CCCCCCCCC(=O)Nc5ccc(-c6csc(-c7csc(Nc8ccc(Cl)cc8)n7)n6)cc5)CC4)c3C2=O)C(=O)N1 (stereo not drawn) | 1.6 |
| O=C1CCC(N2C(=O)c3cccc(NC(=O)CN4CCN(CCCCCC(=O)Nc5ccc(-c6csc(-c7csc(Nc8ccc(Cl)cc8)n7)n6)cc5)CC4)c3C2=O)C(=O)N1 (stereo not drawn) | 1.2 |
| O=C1CCC(N2C(=O)c3cccc(NC(=O)CN4CCN(CCCCCCCCCCC(=O)Nc5ccc(-c6csc(-c7csc(Nc8ccc(Cl)cc8)n7)n6)cc5)CC4)c3C2=O)C(=O)N1 (stereo not drawn) | 1.5 |
| O=C1CCC(N2Cc3c(NC(=O)CCCCCCCCCCCC(=O)Nc4ccc(-c5csc(-c6csc(Nc7ccc(Cl)cc7)n6)n5)cc4)cccc3C2=O)C(=O)N1 (stereo not drawn) | 1 |
| O=C1CCC(N2Cc3c(NC(=O)CCCCCC(=O)Nc4ccc(-c5csc(-c6csc(Nc7ccc(Cl)cc7)n6)n5)cc4)cccc3C2=O)C(=O)N1 (stereo not drawn) | 1 |
| O=C1CCC(N2Cc3c(NC(=O)CCCCCCCCCC(=O)Nc4ccc(-c5csc(-c6csc(Nc7ccc(Cl)cc7)n6)n5)cc4)cccc3C2=O)C(=O)N1 (stereo not drawn) | 1.3 |
| O=C1CCC(N2Cc3c(NC(=O)CCCCCCCCCCCCCC(=O)Nc4ccc(-c5csc(-c6csc(Nc7ccc(Cl)cc7)n6)n5)cc4)cccc3C2=O)C(=O)N1 (stereo not drawn) | 1 |
| O=C1CCC(N2C(=O)c3cccc(NC(=O)CN4CCN(CCCCCCCCCC(=O)Nc5ccc(-c6csc(-c7csc(Nc8ccc(Cl)cc8)n7)n6)cc5)CC4)c3C2=O)C(=O)N1 (stereo not drawn) | 1.2 |
| O=C1CCC(N2C(=O)c3cccc(NC(=O)CN4CCN(CCCCCCCCCCCC(=O)Nc5ccc(-c6csc(-c7csc(Nc8ccc(Cl)cc8)n7)n6)cc5)CC4)c3C2=O)C(=O)N1 (stereo not drawn) | 1.1 |
| O=C1CCC(N2Cc3c(NC(=O)CCCCCCCC(=O)Nc4ccc(-c5csc(-c6csc(Nc7ccc(Cl)cc7)n6)n5)cc4)cccc3C2=O)C(=O)N1 (stereo not drawn) | 1 |

molecular target: T2, von Hippel-Lindau disease tumor suppressor/Cytochrome P450 1B1 (Homo sapiens, UniProt Q16678+P40337); assay: PROTAC activity at VHL/CYP1B1 in human A549/Taxol cells assessed as degradation by measuring fold change in remaining CYP1B1 level at 1 nM incubated for 24 hrs by Western blotting analysis (reference value: 1); format: ADME, cell-based; conditions: 0.001 µM
T2 sequence (Q16678 whole entry): as the sequence (Q16678 whole entry) above
T2 sequence (P40337 whole entry): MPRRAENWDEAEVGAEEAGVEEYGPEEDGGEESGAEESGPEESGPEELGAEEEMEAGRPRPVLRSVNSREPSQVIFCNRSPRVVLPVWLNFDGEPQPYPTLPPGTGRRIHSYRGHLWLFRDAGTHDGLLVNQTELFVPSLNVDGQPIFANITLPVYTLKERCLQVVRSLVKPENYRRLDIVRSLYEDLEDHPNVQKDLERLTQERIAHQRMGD

| Compound | fold change (FC) |
| --- | --- |
| Cc1ncsc1-c1ccc([C@H](C)NC(=O)[C@@H]2C[C@@H](O)CN2C(=O)[C@@H](NC(=O)CCCCCCCCCCOc2ccccc2-c2csc(-c3csc(Nc4ccc(Cl)cc4)n3)n2)C(C)(C)C)cc1 | 1.7 |
| Cc1ncsc1-c1ccc([C@H](C)NC(=O)[C@@H]2C[C@@H](O)CN2C(=O)[C@@H](NC(=O)CCCCCCCCOc2ccccc2-c2csc(-c3csc(Nc4ccc(Cl)cc4)n3)n2)C(C)(C)C)cc1 | 0.7 |
| Cc1ncsc1-c1ccc([C@H](C)NC(=O)[C@@H]2C[C@@H](O)CN2C(=O)[C@@H](NC(=O)CCCCCOc2ccccc2-c2csc(-c3csc(Nc4ccc(Cl)cc4)n3)n2)C(C)(C)C)cc1 | 0.5 |
| Cc1ncsc1-c1ccc([C@H](C)NC(=O)[C@@H]2C[C@@H](O)CN2C(=O)[C@@H](NC(=O)CCCCCCCCCOc2ccccc2-c2csc(-c3csc(Nc4ccc(Cl)cc4)n3)n2)C(C)(C)C)cc1 | 1.5 |
| Cc1ncsc1-c1ccc([C@H](C)NC(=O)[C@@H]2C[C@@H](O)CN2C(=O)[C@@H](NC(=O)Cn2cc(CCCCCOc3ccccc3-c3csc(-c4csc(Nc5ccc(Cl)cc5)n4)n3)nn2)C(C)(C)C)cc1 | 1.1 |
| Cc1ncsc1-c1ccc([C@H](C)NC(=O)[C@@H]2C[C@@H](O)CN2C(=O)[C@@H](NC(=O)Cn2cc(COCCOCCOc3ccccc3-c3csc(-c4csc(Nc5ccc(Cl)cc5)n4)n3)nn2)C(C)(C)C)cc1 | 1.1 |
| Cc1ncsc1-c1ccc([C@H](C)NC(=O)[C@@H]2C[C@@H](O)CN2C(=O)[C@@H](NC(=O)CCCCCCCCCCCOc2ccccc2-c2csc(-c3csc(Nc4ccc(Cl)cc4)n3)n2)C(C)(C)C)cc1 | 0.9 |
| Cc1ncsc1-c1ccc([C@H](C)NC(=O)[C@@H]2C[C@@H](O)CN2C(=O)[C@@H](NC(=O)CCCCCCCOc2ccccc2-c2csc(-c3csc(Nc4ccc(Cl)cc4)n3)n2)C(C)(C)C)cc1 | 0.4 |

molecular target: T2, von Hippel-Lindau disease tumor suppressor/Cytochrome P450 1B1; assay: PROTAC activity at VHL/CYP1B1 in human A549/Taxol cells assessed as degradation by measuring fold change in remaining CYP1B1 level at 1000 nM incubated for 24 hrs by Western blotting analysis (reference value: 1); format: ADME, cell-based; conditions: 1 µM

| Compound | fold change (FC) |
| --- | --- |
| Cc1ncsc1-c1ccc([C@H](C)NC(=O)[C@@H]2C[C@@H](O)CN2C(=O)[C@@H](NC(=O)CCCCCCCCCCOc2ccccc2-c2csc(-c3csc(Nc4ccc(Cl)cc4)n3)n2)C(C)(C)C)cc1 | 1.8 |
| Cc1ncsc1-c1ccc([C@H](C)NC(=O)[C@@H]2C[C@@H](O)CN2C(=O)[C@@H](NC(=O)CCCCCCCCOc2ccccc2-c2csc(-c3csc(Nc4ccc(Cl)cc4)n3)n2)C(C)(C)C)cc1 | 0.6 |
| Cc1ncsc1-c1ccc([C@H](C)NC(=O)[C@@H]2C[C@@H](O)CN2C(=O)[C@@H](NC(=O)CCCCCOc2ccccc2-c2csc(-c3csc(Nc4ccc(Cl)cc4)n3)n2)C(C)(C)C)cc1 | 1.5 |
| Cc1ncsc1-c1ccc([C@H](C)NC(=O)[C@@H]2C[C@@H](O)CN2C(=O)[C@@H](NC(=O)CCCCCCCCCOc2ccccc2-c2csc(-c3csc(Nc4ccc(Cl)cc4)n3)n2)C(C)(C)C)cc1 | 1.5 |
| Cc1ncsc1-c1ccc([C@H](C)NC(=O)[C@@H]2C[C@@H](O)CN2C(=O)[C@@H](NC(=O)Cn2cc(CCCCCOc3ccccc3-c3csc(-c4csc(Nc5ccc(Cl)cc5)n4)n3)nn2)C(C)(C)C)cc1 | 0.9 |
| Cc1ncsc1-c1ccc([C@H](C)NC(=O)[C@@H]2C[C@@H](O)CN2C(=O)[C@@H](NC(=O)Cn2cc(COCCOCCOc3ccccc3-c3csc(-c4csc(Nc5ccc(Cl)cc5)n4)n3)nn2)C(C)(C)C)cc1 | 1.3 |
| Cc1ncsc1-c1ccc([C@H](C)NC(=O)[C@@H]2C[C@@H](O)CN2C(=O)[C@@H](NC(=O)CCCCCCCCCCCOc2ccccc2-c2csc(-c3csc(Nc4ccc(Cl)cc4)n3)n2)C(C)(C)C)cc1 | 2 |
| Cc1ncsc1-c1ccc([C@H](C)NC(=O)[C@@H]2C[C@@H](O)CN2C(=O)[C@@H](NC(=O)CCCCCCCOc2ccccc2-c2csc(-c3csc(Nc4ccc(Cl)cc4)n3)n2)C(C)(C)C)cc1 | 0.2 |

molecular target: T2, von Hippel-Lindau disease tumor suppressor/Cytochrome P450 1B1; assay: PROTAC activity at VHL/CYP1B1 in human A549/Taxol cells assessed as reduction in CYP1B1 level at 1 nM incubated for 24 hrs by Western blotting analysis; format: ADME, cell-based; set-up: scale not given: the % may be the effect or the level left; conditions: 0.001 µM

| Compound | Activity |
| --- | --- |
| Cc1ncsc1-c1ccc([C@H](C)NC(=O)[C@@H]2C[C@@H](O)CN2C(=O)[C@@H](NC(=O)CCCCCCCOc2ccccc2-c2csc(-c3csc(Nc4ccc(Cl)cc4)n3)n2)C(C)(C)C)cc1 | 60% |

molecular target: T2, von Hippel-Lindau disease tumor suppressor/Cytochrome P450 1B1; assay: PROTAC activity at VHL/CYP1B1 in human A549/Taxol cells assessed as reduction in CYP1B1 level at 1000 nM incubated for 24 hrs by Western blotting analysis; format: ADME, cell-based; set-up: scale not given: the % may be the effect or the level left; conditions: 1 µM

| Compound | Activity |
| --- | --- |
| Cc1ncsc1-c1ccc([C@H](C)NC(=O)[C@@H]2C[C@@H](O)CN2C(=O)[C@@H](NC(=O)CCCCCCCOc2ccccc2-c2csc(-c3csc(Nc4ccc(Cl)cc4)n3)n2)C(C)(C)C)cc1 | > 70% |

molecular target: T2, von Hippel-Lindau disease tumor suppressor/Cytochrome P450 1B1; assay: PROTAC activity at VHL/CYP1B1 in human A549/Taxol cells assessed as reduction in CYP1B1 level at 1 uM incubated for 24 hrs by Western blotting analysis; format: ADME, cell-based; conditions: not given

| Compound | Activity |
| --- | --- |
| CC(C)C[C@@H](C=O)NC(=O)[C@H](CC(C)C)NC(=O)[C@H](CC(C)C)NC(=O)OCc1ccccc1 [MG-132] (Cbz-Leu-Leu-Leu-aldehyde) | Not Active |
